What all share (test): ITC direct binding
Holding throughout (design): species or system A. thaliana

For assay [1], the target named is T1, MUTE (Arabidopsis thaliana, UniProt Q9M8K6).
T1 construct: MUTE (1-202); made in house; host or cells: E. coli BL21
The source says: (§1) A. thaliana SCRM (1-494), ΔNSPCH (98-364), MUTE (1-202), ΔNFAMA (190-414), MUTEΔC (1-114), MUTER133A_R134A, MUTEE162A_E163A, MUTER133A_R134A_E162A_E163A, SCRM-ACTL (405-494), MUTE-ACTL (114-202), SPCH-ACTL (285-364), FAMA-ACTL (306-414), MUTE_ACTLR133A_R134A, MUTE_ACTLE162A_E163A, MUTE_ACTLR133A_R134A_E162A_E163A were cloned into pGEX-4T-1 vector with an N-terminal GST tag and a thrombin cleavage sequence. For protein expression, the constructs were transformed into E. coli strain BL21. For each transformant, a single colony was selected and incubated in 10 ml LB liquid media. The overnight-incubated E. coli suspensions were transferred to 1 L LB medium and incubated at 37 °C for around 2 h until the OD600 reached 0.4–0.6. The isopropyl β-D-1-thiogalactopyranoside ([…] of final concentration) was added to the cultures and the strains were incubated at 22 °C for a further 18 h. GST-fused proteins were purified using glutathione agarose resin. The soluble portion of the cell lysate was loaded onto a GST-Sepharose column. Nonspecifically bound proteins were removed by washing the column with 20 mM Tris pH 8.0, 200 mM NaCl. The bound GST-fused protein was eluted with 10 mm glutathione and 20 mM Tris pH 8.0, 200 mM NaCl. The GST-fused proteins were exchanged with phosphate-buffered saline buffer, and then the solution was treated with 50 μg of thrombin for 10–12 h at 16 ^οC. The GST portion of the protein was cleaved during thrombin digestion, and then the whole solution was reloaded onto the glutathione S-transferase column to obtain pure protein. The purified proteins were further purified by gel filtration on a Superdex-200 (GE) column using fast protein liquid chromatography and phosphate buffer (pH 7.2) as the eluent. The purity of the protein was checked by SDS-PAGE. For detailed lists of oligo DNA and plasmid information, see Supplementary Tables 5, 6, respectively.
(§2) Binding of the small molecule Stomidazolone (3) to SCRM, MUTE, SPCH, FAMA, MUTEΔC, MUTE_ACTL, SCRM_ACTL, SPCH_ACTL and FAMA_ACTL, MUTER133A_R134A, MUTEE162A_E163A, MUTER133A_R134A_E162A_E163A, as well as SCRM binding to MUTE in the presence and absence of Stomidazolone (3) / AYSJ1059 (5) /AYSJ1061 (6) was characterized at 30 °C using a Malvern PEAQ-ITC microcalorimeter. All the protein samples were dialyzed overnight using PBS buffer containing 2% DMSO and 1 mM DTT. Stomidazolone was dissolved in PBS buffer containing 2% DMSO and 1 mM DTT. Titrations were performed by injecting 1 × 0.5-μL and 12 × 3-μL or 1 × 0.75-μL and 18 × 2-μL or 1 × 0.2-μL and 25 × 1.3-μL aliquots of 1 mM Stomidazolone / AYSJ1059 / AYSJ1061 to 5-30 μM of protein in PBS buffer pH 7.4, containing 2% DMSO and 1 mM DTT. All titrations were carried out at least twice. The raw data were corrected using buffer and protein controls and analyzed using the software supplied by the manufacturer. See Supplementary Table 3 for details.

Assay [2] deals with T2, SCRM (Arabidopsis thaliana, UniProt Q9LSE2).
T2 construct: SCRM (1-494); made in house; host or cells: E. coli BL21
T2 sequence (Q9LSE2 1-494): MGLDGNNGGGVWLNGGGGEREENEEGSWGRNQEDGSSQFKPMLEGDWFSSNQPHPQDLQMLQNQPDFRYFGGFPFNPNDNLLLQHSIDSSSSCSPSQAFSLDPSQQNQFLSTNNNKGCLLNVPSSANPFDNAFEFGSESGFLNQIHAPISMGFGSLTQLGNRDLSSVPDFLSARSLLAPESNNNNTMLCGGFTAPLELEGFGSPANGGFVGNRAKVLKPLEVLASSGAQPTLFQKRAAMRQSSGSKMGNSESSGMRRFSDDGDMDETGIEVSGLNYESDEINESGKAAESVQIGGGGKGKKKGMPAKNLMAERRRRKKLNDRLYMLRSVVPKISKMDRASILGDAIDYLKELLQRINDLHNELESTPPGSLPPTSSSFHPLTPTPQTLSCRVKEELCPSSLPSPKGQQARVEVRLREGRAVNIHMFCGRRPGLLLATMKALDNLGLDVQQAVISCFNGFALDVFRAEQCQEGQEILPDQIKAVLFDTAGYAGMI
Excerpt: as §1, §2

The target in assay [3] is T3, SPCH_ACTL (Arabidopsis thaliana, UniProt Q700C7).
T3 construct: SPCH-ACTL (285-364); GST (N, cleaved yes); made in house; host or cells: E. coli BL21
T3 sequence (Q700C7 285-364): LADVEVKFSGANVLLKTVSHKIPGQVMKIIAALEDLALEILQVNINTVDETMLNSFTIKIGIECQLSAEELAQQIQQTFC
Excerpt: as §1, §2

The target in assay [4] is T4, SPCH (Arabidopsis thaliana, UniProt Q700C7).
T4 construct: ΔNSPCH (98-364); made in house; host or cells: E. coli BL21
T4 sequence (Q700C7 98-364): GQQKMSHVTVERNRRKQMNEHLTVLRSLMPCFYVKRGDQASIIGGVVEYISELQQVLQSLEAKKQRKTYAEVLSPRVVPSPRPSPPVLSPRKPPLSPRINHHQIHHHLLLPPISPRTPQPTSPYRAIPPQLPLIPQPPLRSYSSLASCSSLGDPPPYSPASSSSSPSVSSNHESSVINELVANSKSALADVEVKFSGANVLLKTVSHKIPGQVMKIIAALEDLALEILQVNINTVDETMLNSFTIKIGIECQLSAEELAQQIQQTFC
Excerpt: as §1, §2

In assay [5] the target is T5, MUTE_ACTLR133A_R134A (Arabidopsis thaliana, UniProt Q9M8K6, R133A/R134A).
T5 construct: MUTE-ACTL (114-202); made in house; host or cells: E. coli BL21
T5 sequence (Q9M8K6 114-202 R133A/R134A): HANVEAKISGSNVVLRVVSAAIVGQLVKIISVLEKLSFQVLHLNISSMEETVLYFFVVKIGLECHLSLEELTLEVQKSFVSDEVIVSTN
Conditions: MUTE_ACTL R133A_R134A.
Excerpt: as §1, §2

Assay [6] addresses T6, SCRM_ACTL (Arabidopsis thaliana, UniProt Q9LSE2).
T6 construct: SCRM-ACTL (405-494); GST (N, cleaved yes); made in house; host or cells: E. coli BL21
T6 sequence (Q9LSE2 405-494): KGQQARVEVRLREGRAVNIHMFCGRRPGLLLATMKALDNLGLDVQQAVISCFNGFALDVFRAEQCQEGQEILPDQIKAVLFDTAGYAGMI
Excerpt: as §1, §2

T1 sequence (Q9M8K6 whole entry): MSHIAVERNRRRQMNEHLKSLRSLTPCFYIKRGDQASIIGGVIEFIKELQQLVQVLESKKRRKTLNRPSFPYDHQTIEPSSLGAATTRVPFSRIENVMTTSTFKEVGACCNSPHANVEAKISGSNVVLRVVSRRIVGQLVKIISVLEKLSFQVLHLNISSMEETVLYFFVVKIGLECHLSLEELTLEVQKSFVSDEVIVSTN

What is called Kd is the free concentration of one partner at which half of the binding sites on the other are occupied at equilibrium, for simple one-to-one binding. The low end stands for tighter binding, the high end for weaker binding. Consider `O=C1C(c2ccccc2)=NC(NS(=O)(=O)c2ccccc2)(c2ccccc2)N1S(=O)(=O)c1ccccc1` (stereo not drawn) [Stomidazolone], for which the “-T△S” value in assay [1] is 17.3 ± 0.4; in assay [2], 4.1 ± 0.2; in assay [3], 3.4 ± 0.2; in assay [4], 3.6 ± 0.2; in assay [5], 5.1 ± 0.2; in assay [6] it was 6.1 ± 0.2. In addition, the equilibrium dissociation constant (Kd) in assay [1] was 7.8 ± 1.1 µM; in assay [2], 71.5 ± 5.1 µM; in assay [3], 96.8 ± 7.6 µM; in assay [4], 79.6 ± 3.6 µM; in assay [5] it was 127 ± 28.5 µM; in assay [6] it was 78.4 ± 5.1 µM. Further, the “△G” value in assay [1] is on record as -3.3 ± 0.2; in assay [2] it was -4.8 ± 0.2; in assay [3], -2.1 ± 0.2; in assay [4], -2.6 ± 0.2; in assay [5] it was -3.8 ± 0.2; in assay [6], -3.2 ± 0.2. Besides, the “△H” value is recorded as -20.6 ± 0.4 in assay [1]; -8.9 ± 0.2 in assay [2]; -5.5 ± 0.3 in assay [3]; -6.2 ± 0.5 in assay [4]; -8.9 ± 0.4 in assay [5]; -9.3 ± 0.4 in assay [6].

For the origin of these results see publication PMC11500415, “Chemical inhibition of stomatal differentiation by perturbation of the master-regulatory bHLH heterodimer via an ACT-Like domain” (Nature Communications, 2024).
